Test results taken from patent US20240101544A1, “INHIBITORS OF QPCTL AND QPCT” (priority 2022, published 2024).

Tests used:
QPCTL [1] = molecular target: T1, QPCTL (Homo sapiens (Human), UniProt Q9NXS2); test: Inhibition of Cellular QPCTL Activity - FACS flow cytometry, CC2C6 anti-CD47 staining of Ramos cells; assay type: cell-based; details: Ramos human Burkitts Lymphoma cells, 72-96 hours, % CC2C6-positive cells
Procedure: Inhibition of Cellular QPCTL Activity—Fluorescence-Activated Cell Sorting (FACS) Flow Cytometry
The cells were incubated for 72-96 hours at 37° C. and 5% CO2. At the end of incubation period, cells were transferred to tubes and spun down at 1200 rpm for 5 minutes. […] After antibody staining, the cells were washed with FACS buffer then stained with SYTOX™ Blue dead cell stain at a dilution of 1:1000. Cells were analyzed on a BD FACS Melody and a positive staining gate on live cells was set using the 0.1% DMSO controls. […] Flow cytometry data were analyzed by FlowJo software and concentration-response-curves and IC50 values were generated using Collaborative Drug Discovery software.
Target sequence in this assay (Q9NXS2 whole entry): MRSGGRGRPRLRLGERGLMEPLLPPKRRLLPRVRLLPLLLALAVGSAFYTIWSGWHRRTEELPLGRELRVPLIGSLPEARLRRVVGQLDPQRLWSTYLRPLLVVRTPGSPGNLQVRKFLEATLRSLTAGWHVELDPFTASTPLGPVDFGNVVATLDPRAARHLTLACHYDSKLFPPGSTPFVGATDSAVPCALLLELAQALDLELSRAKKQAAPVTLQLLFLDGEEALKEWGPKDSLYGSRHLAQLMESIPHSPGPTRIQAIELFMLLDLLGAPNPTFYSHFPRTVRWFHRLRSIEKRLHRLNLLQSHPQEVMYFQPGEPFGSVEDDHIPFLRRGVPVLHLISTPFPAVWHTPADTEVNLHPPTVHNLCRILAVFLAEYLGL

QPCTL [2] = molecular target: T1, QPCTL; test: QPCTL Enzymatic Activity Assay (coupled-enzyme fluorescent assay, H-Gln-AMC substrate); assay type: biochemical; details: recombinant truncated human QPCTL 10-12 nM, 10 μM H-Gln-AMC; read-out: QPCTL Inhibition IC50
Target sequence in this assay (Q9NXS2 53-382): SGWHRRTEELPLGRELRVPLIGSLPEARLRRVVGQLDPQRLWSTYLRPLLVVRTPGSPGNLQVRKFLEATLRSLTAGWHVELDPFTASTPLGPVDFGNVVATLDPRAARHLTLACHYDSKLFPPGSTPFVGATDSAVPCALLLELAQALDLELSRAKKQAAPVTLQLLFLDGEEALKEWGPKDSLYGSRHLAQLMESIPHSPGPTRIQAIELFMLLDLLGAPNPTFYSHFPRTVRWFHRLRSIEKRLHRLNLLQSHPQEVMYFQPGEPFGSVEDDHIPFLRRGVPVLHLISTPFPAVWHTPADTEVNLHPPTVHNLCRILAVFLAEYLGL

QPCT (rhQPCT) = QPCT (rhQPCT) (Homo sapiens (Human), UniProt Q16769); test: QPCT Enzymatic Activity Assay (coupled-enzyme fluorescent assay, H-Gln-AMC substrate); assay type: biochemical; details: rhQPCT 10-12 nM, 10 μM H-Gln-AMC; read-out: QPCT Inhibition IC50
How it was run: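 Coupled assay: recombinant human QPCT converts H-Gln-AMC (10 μM final) to pyroglutamyl-AMC, 60 min at 37 °C, stopped by boiling; PGPEP-1 then releases AMC.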

QPCTL [3] = molecular target: T1, QPCTL; test: Inhibition of Cellular QPCTL Activity - Imaging Assay, CC2C6 anti-CD47 staining of DLD-1 cells; assay type: cell-based; details: 72 hours, CC2C6 anti-CD47 high-content imaging
Procedure: Inhibition of Cellular QPCTL Activity—Imaging Assay
The cells were incubated for 72 hours at 37° C. and 5% CO2. […] After primary antibody staining, the cells were fixed with 4% paraformaldehyde in the incubation buffer for 15 minutes at room temperature. […] Cells were analyzed on a ImageXpress Pico Automated Cell Imaging System (Molecular Devices) using 10× objective (3×3 fields).
Target sequence in this assay (Q9NXS2 whole entry): as the sequence (Q9NXS2 whole entry) above

Sequence of QPCT (rhQPCT) (Q16769 29-361): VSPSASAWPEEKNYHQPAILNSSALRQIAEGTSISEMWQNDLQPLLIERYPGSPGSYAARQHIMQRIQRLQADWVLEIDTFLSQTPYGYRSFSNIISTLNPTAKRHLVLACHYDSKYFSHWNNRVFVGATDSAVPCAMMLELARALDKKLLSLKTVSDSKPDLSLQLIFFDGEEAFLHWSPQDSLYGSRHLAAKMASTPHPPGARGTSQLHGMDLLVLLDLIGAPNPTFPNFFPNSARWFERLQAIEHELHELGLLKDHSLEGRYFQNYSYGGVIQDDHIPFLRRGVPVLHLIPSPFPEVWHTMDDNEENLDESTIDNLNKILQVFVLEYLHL

| SMILES | IC50 (QPCTL [1]) | IC50 (QPCTL [2]) | IC50 (QPCT (rhQPCT)) | IC50 (QPCTL [3]) |
| --- | --- | --- | --- | --- |
| COc1ccc(-c2ccc(F)nc2)c(N2CCC(c3nncn3C)CC2)c1C#N [Example 24, 3-(6-fluoropyridin-3-yl)-6-methoxy-2-[4-(4-methyl-4H-1,2,4-triazol-3-yl)piperidin-1-yl]benzonitrile] | < 0.1 µM | < 0.1 µM | < 0.1 µM | < 0.1 µM |
| COc1ccncc1-c1ccc(OC)c(C#N)c1N1CCC(c2nncn2C)CC1 [Example 25, 6-methoxy-3-(4-methoxypyridin-3-yl)-2-[4-(4-methyl-4H-1,2,4-triazol-3-yl)piperidin-1-yl]benzonitrile] | 0.1 to 1 µM | < 0.1 µM | < 0.1 µM | 1 to 10 µM |
| Cn1cnnc1C1CCN(c2c(-c3ccnnc3)ccc(Cl)c2C#N)CC1 [Example 33, 6-chloro-2-[4-(4-methyl-4H-1,2,4-triazol-3-yl)piperidin-1-yl]-3-(pyridazin-4-yl)benzonitrile] | < 0.1 µM | < 0.1 µM | < 0.1 µM |  |
| Cn1cnnc1C1CCN(c2c(C#N)cccc2-c2cnc(=O)n(C)c2)CC1 [Example 34, 3-(1-methyl-2-oxo-1,2-dihydropyrimidin-5-yl)-2-[4-(4-methyl-4H-1,2,4-triazol-3-yl)piperidin-1-yl]benzonitrile] | 1 to 10 µM | < 0.1 µM | < 0.1 µM | 0.1 to 1 µM |
| Cn1cc(-c2ccc(-c3ccc(F)nc3)c(N3CCC(c4nncn4C)CC3)c2C#N)cn1 [Example 35, 3-(6-fluoropyridin-3-yl)-6-(1-methyl-1H-pyrazol-4-yl)-2-[4-(4-methyl-4H-1,2,4-triazol-3-yl)piperidin-1-yl]benzonitrile] | < 0.1 µM | < 0.1 µM | < 0.1 µM | < 0.1 µM |
| Cn1cc(-c2ccc(-c3ccnnc3)c(N3CCC(c4nncn4C)CC3)c2C#N)cn1 [Example 36, 6-(1-methyl-1H-pyrazol-4-yl)-2-[4-(4-methyl-4H-1,2,4-triazol-3-yl)piperidin-1-yl]-3-(pyridazin-4-yl)benzonitrile] | < 0.1 µM | < 0.1 µM | < 0.1 µM |  |
| CN(C)CCOc1ccc(-c2ccc(F)nc2)c(N2CCC(c3nncn3C)CC2)c1C#N [Example 37, 6-[2-(dimethylamino)ethoxy]-3-(6-fluoropyridin-3-yl)-2-[4-(4-methyl-4H-1,2,4-triazol-3-yl)piperidin-1-yl]benzonitrile] | < 0.1 µM | < 0.1 µM | < 0.1 µM |  |
| Cn1cnnc1C1CCN(c2c(C#N)ccc(F)c2-c2ccc(F)nc2)CC1 [Example 38, 4-fluoro-3-(6-fluoropyridin-3-yl)-2-[4-(4-methyl-4H-1,2,4-triazol-3-yl)piperidin-1-yl]benzonitrile] | < 0.1 µM | < 0.1 µM | < 0.1 µM | < 0.1 µM |
| Cn1cnnc1C1CCN(c2c(C#N)ccc(F)c2-c2ccnnc2)CC1 [Example 39, 4-fluoro-2-[4-(4-methyl-4H-1,2,4-triazol-3-yl)piperidin-1-yl]-3-(pyridazin-4-yl)benzonitrile] | 0.1 to 1 µM | < 0.1 µM | < 0.1 µM |  |
